This note sets out measurements from ChEMBL document CHEMBL3612010, “Deprotometalation-iodolysis and computed CH acidity of 1,2,3- and 1,2,4-triazoles. Application to the synthesis of resveratrol analogues” (Bioorg Med Chem, 2015).

As a reminder, the IC50 is the concentration needed to halve the response being measured. Usually MIC stands for the smallest concentration in the dilution series that meets the test's criterion for growth inhibition. Low values mean inhibition by little substance, high ones a need for much substance.

Structures are written as SMILES. Values after ≈ are worked out from the molar mass of the structure shown.

Experiment [1] deals with MDA-MB-231. Briefly: Antiproliferative activity against human MDA-MB-231 cells assessed as cell survival at 100 uM after 24 hrs by MTT assay relative to control. It counts as functional. As to conditions: MDA-MB-231, 24 h, read-out: Survival. In general terms: Tetrazolium assays rely on reduction of a dye to a coloured formazan, in cell work by metabolically active cells.

Experiment [2] concerns MDA-MB-231. The experiment in a line: Antiproliferative activity against human MDA-MB-231 cells assessed as cell survival at 100 uM after 48 hrs by MTT assay relative to control. In kind it is functional. The conditions noted are these: MDA-MB-231, 48 h, read-out: Survival.
The subject of experiment [3] is MDA-MB-231. The experiment in a line: Antiproliferative activity human MDA-MB-231 cells assessed as cell survival after 48 hrs by MTT assay. The conditions noted are these: MDA-MB-231, 48 h. It counts as functional, cell-based.
Experiment [4] relates to Staphylococcus aureus. The experiment in a line: Antibacterial activity against Staphylococcus aureus ATCC 29213 after 24 hrs by broth microdilution method. The conditions noted are these: ATCC 29213, 24 h. In kind it is functional. In general terms: In broth dilution the organism is exposed to a series of concentrations in liquid medium.
The subject of experiment [5] is Staphylococcus aureus. The experiment in a line: Antibacterial activity against Staphylococcus aureus ATCC 25923 after 24 hrs by broth microdilution method. The conditions noted are these: ATCC 25923, 24 h. In kind it is functional.
A further experiment has as its system Pseudomonas aeruginosa. Briefly: Antibacterial activity against Pseudomonas aeruginosa […] after 24 hrs by broth microdilution method. In kind it is functional.
The subject of another experiment is Enterococcus faecalis. Briefly: Antibacterial activity against Enterococcus faecalis ATCC 29212 after 24 hrs by broth microdilution method. In kind it is functional. The conditions noted are these: ATCC 29212, 24 h.
The next experiment deals with Escherichia coli. The experiment in a line: Antibacterial activity against Escherichia coli ATCC 25922 after 24 hrs by broth microdilution method. In kind it is functional. The conditions noted are these: ATCC 25922, 24 h.
Experiment [6] has as its system MDA-MB-231. The experiment in a line: Antiproliferative activity against human MDA-MB-231 cells assessed as cell survival at 25 uM after 48 hrs by MTT assay relative to control. The conditions noted are these: MDA-MB-231, 48 h, read-out: Survival. In kind it is functional.

In the case of `Clc1cccc(-c2cnn(-c3ccccc3-c3cccc(Cl)c3)n2)c1`, the viability at 100 µM is 40.5% with MDA-MB-231 [1] and 11% in the experiment with MDA-MB-231 [2]. In the experiment with MDA-MB-231 [3], the IC50 is 45.5 µM. Further, the MIC is 256 µg/mL (≈ 699 µM) with Staphylococcus aureus [4]; 128 µg/mL (≈ 349 µM) with Staphylococcus aureus [5]; 128 µg/mL (≈ 349 µM) against Pseudomonas aeruginosa; 256 µg/mL (≈ 699 µM) against Enterococcus faecalis; 128 µg/mL (≈ 349 µM) in the experiment with Escherichia coli.
`Nc1ccc(-c2cnn(-c3ccccc3-c3ccc(N)cc3)n2)cc1`: the viability at 100 µM in the experiment with MDA-MB-231 [1] was 44%; in the experiment with MDA-MB-231 [2], 2.5%. For the same compound, the viability at 25 µM in the experiment on MDA-MB-231 [6] stood at 22%. Besides, the IC50 in the experiment on MDA-MB-231 [3] is 17.5 µM. Further, the MIC in the experiment on Staphylococcus aureus [4] turned out to be 128 µg/mL (≈ 391 µM); against Staphylococcus aureus [5], 64 µg/mL (≈ 195 µM); in the experiment on Pseudomonas aeruginosa, 128 µg/mL (≈ 391 µM); in the experiment on Enterococcus faecalis, 128 µg/mL (≈ 391 µM); with Escherichia coli, 128 µg/mL (≈ 391 µM).
For the compound `CN[C@H](CC(C)C)C(=O)N[C@H]1C(=O)N[C@@H](CC(N)=O)C(=O)N[C@H]2C(=O)N[C@H]3C(=O)N[C@H](C(=O)N[C@H](C(=O)O)c4cc(O)cc(O)c4-c4cc3ccc4O)[C@H](O)c3ccc(c(Cl)c3)Oc3cc2cc(c3O[C@@H]2O[C@H](CO)[C@@H](O)[C@H](O)[C@H]2O[C@H]2C[C@](C)(N)[C@H](O)[C@H](C)O2)Oc2ccc(cc2Cl)[C@H]1O` [VANCOMYCIN], in the experiment with Enterococcus faecalis, the MIC is < 1 µg/mL.
For the compound `Oc1ccc(-c2cnn(-c3ccccc3-c3ccc(O)cc3)n2)cc1`, the results for the viability at 100 µM in the experiment on MDA-MB-231 [1] and in the experiment on MDA-MB-231 [2] were 54.5% and 11%, respectively. The IC50 in the experiment with MDA-MB-231 [3] came to 40 µM. Moreover, the minimal inhibitory concentration (MIC) against Staphylococcus aureus [4] was found to be 128 µg/mL (≈ 389 µM); against Staphylococcus aureus [5], 128 µg/mL (≈ 389 µM); against Pseudomonas aeruginosa, 64 µg/mL (≈ 194 µM); against Enterococcus faecalis, 128 µg/mL (≈ 389 µM); in the experiment on Escherichia coli it was 128 µg/mL (≈ 389 µM).
In the experiment on Escherichia coli, `CC1(C)S[C@@H]2[C@H](NC(=O)[C@H](N)c3ccc(O)cc3)C(=O)N2[C@H]1C(=O)O` [AMOXICILLIN] displayed a minimal inhibitory concentration (MIC) of 4 µg/mL (≈ 10.9 µM).
`Cc1onc(-c2ccccc2)c1C(=O)N[C@@H]1C(=O)N2[C@@H]1SC(C)(C)[C@@H]2C(=O)O` [OXACILLIN]: the MIC against Staphylococcus aureus [4] and in the experiment on Staphylococcus aureus [5] was < 1 µg/mL throughout.
As for `FC(F)(F)Oc1ccc(-n2nccn2)cc1`, the viability at 100 µM stood at 58.5% in the experiment with MDA-MB-231 [1] and 24% in the experiment with MDA-MB-231 [2]. The IC50 in the experiment with MDA-MB-231 [3] came out at 67 µM. Also, the MIC against Staphylococcus aureus [4] is 256 µg/mL (≈ 1120 µM); against Staphylococcus aureus [5], 256 µg/mL (≈ 1120 µM); in the experiment with Pseudomonas aeruginosa, 128 µg/mL (≈ 559 µM); against Enterococcus faecalis, 128 µg/mL (≈ 559 µM); against Escherichia coli, 256 µg/mL (≈ 1120 µM).
As to `Oc1ccc(-c2cnn(-c3ccccc3)n2)cc1`, the viability at 100 µM with MDA-MB-231 [1] worked out at 102%. The MIC against Staphylococcus aureus [4] was found to be 64 µg/mL (≈ 270 µM); in the experiment with Staphylococcus aureus [5] it was 128 µg/mL (≈ 539 µM); against Pseudomonas aeruginosa, 128 µg/mL (≈ 539 µM); with Enterococcus faecalis, 64 µg/mL (≈ 270 µM); against Escherichia coli, 128 µg/mL (≈ 539 µM).
In the case of `COc1ccc(-c2cnn(-c3ccccc3-c3ccc(OC)cc3)n2)cc1`, in the experiment with MDA-MB-231 [1], the viability at 100 µM worked out at 75%. Further, the MIC against Staphylococcus aureus [4], against Staphylococcus aureus [5], against Pseudomonas aeruginosa, against Enterococcus faecalis and with Escherichia coli was 256 µg/mL (≈ 716 µM) throughout.
Take `c1ccc(-c2cnn(-c3ccccc3)n2)cc1`: in the experiment with MDA-MB-231 [1], the viability at 100 µM turned out to be 85.5%. Moreover, the MIC is > 256 µg/mL with Staphylococcus aureus [4]; 256 µg/mL (≈ 1160 µM) in the experiment with Staphylococcus aureus [5]; 128 µg/mL (≈ 578 µM) in the experiment on Pseudomonas aeruginosa; 128 µg/mL (≈ 578 µM) against Enterococcus faecalis; 128 µg/mL (≈ 578 µM) with Escherichia coli.
`CC1(C)S[C@@H]2[C@H](NC(=O)[C@H](C(=O)O)c3ccsc3)C(=O)N2[C@H]1C(=O)O` [TICARCILLIN] gave an MIC against Pseudomonas aeruginosa of 8 µg/mL (≈ 20.8 µM).
As to `Nc1ccc(-c2cnn(-c3ccccc3)n2)cc1`, the viability at 100 µM in the experiment on MDA-MB-231 [1] turned out to be 66%. Moreover, the MIC stood at 256 µg/mL (≈ 1080 µM) against Staphylococcus aureus [4]; 256 µg/mL (≈ 1080 µM) in the experiment with Staphylococcus aureus [5]; 64 µg/mL (≈ 271 µM) with Pseudomonas aeruginosa; 128 µg/mL (≈ 542 µM) in the experiment on Enterococcus faecalis; 128 µg/mL (≈ 542 µM) against Escherichia coli.
Consider `c1ccc(-c2cnn(-c3ccccc3-c3ccccc3)n2)cc1`, for which the viability at 100 µM with MDA-MB-231 [1] turned out to be 49%; in the experiment with MDA-MB-231 [2], 23%. Moreover, the IC50 in the experiment on MDA-MB-231 [3] amounted to 52 µM. The MIC was 128 µg/mL (≈ 430 µM) with Staphylococcus aureus [4]; 256 µg/mL (≈ 861 µM) with Staphylococcus aureus [5]; 128 µg/mL (≈ 430 µM) against Pseudomonas aeruginosa; 128 µg/mL (≈ 430 µM) in the experiment on Enterococcus faecalis; 256 µg/mL (≈ 861 µM) with Escherichia coli.
As to `COc1ccc(OC)c(-c2cnn(-c3ccccc3)n2)c1`, the viability at 100 µM in the experiment on MDA-MB-231 [1] came out at 94%. The minimal inhibitory concentration (MIC) in the experiment with Staphylococcus aureus [4] turned out to be 128 µg/mL (≈ 455 µM); in the experiment with Staphylococcus aureus [5], 256 µg/mL (≈ 910 µM); against Pseudomonas aeruginosa, 128 µg/mL (≈ 455 µM); with Enterococcus faecalis, 128 µg/mL (≈ 455 µM); with Escherichia coli, 128 µg/mL (≈ 455 µM).
`Oc1ccc(/C=C/c2cc(O)cc(O)c2)cc1` [RESVERATROL]: the viability at 100 µM in the experiment on MDA-MB-231 [1] was 93.4%; with MDA-MB-231 [2], 60.3%. Further, the 50% inhibitory concentration (IC50) in the experiment on MDA-MB-231 [3] was determined as 130 µM.
